# From paper PMC6429214, “Design, Synthesis and Biological Evaluation of Isoxazole-Based CK1 Inhibitors Modified with Chiral Pyrrolidine Scaffolds” (Molecules, 2019)
# Assays:
# Assay in all cases: 33PanQinase panel
# Assay type in all cases: biochemical
# FYN = molecular target: T1, FYN (Homo sapiens, UniProt P06241); conditions: read-out: Residual Activity (%)
# T1 construct: purchased ProQinase
# Procedure, shortened: (§1)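 Single-point screen at 1 µM in a 320 wild-type kinase panel using activity-based radiometric 33P assay; final DMSO 1%. Values are percent residual kinase activity relative to DMSO control.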
# VEGF-R3 = molecular target: T2, VEGF-R3 (Homo sapiens, UniProt P35916); conditions: VEGF-R3, 1 µM; read-out: Residual Activity (%)
# T2 construct: purchased ProQinase
# Procedure, shortened: as §1
# MST1 = molecular target: T3, MST1 (Homo sapiens, UniProt Q13043); conditions: MST1, 1 µM; read-out: Residual Activity (%)
# T3 construct: purchased ProQinase
# Procedure, shortened: as §1
# PDK1 = molecular target: T4, PDK1 (Homo sapiens, UniProt O15530); conditions: PDK1, 1 µM; read-out: Residual Activity (%)
# T4 construct: purchased ProQinase
# Procedure, shortened: as §1
# PHKG2 = molecular target: T5, PHKG2 (Homo sapiens, UniProt P15735); conditions: PHKG2, 1 µM; read-out: Residual Activity (%)
# T5 construct: purchased ProQinase
# Procedure, shortened: as §1
# BRSK2 = molecular target: T6, BRSK2 (Homo sapiens, UniProt Q8IWQ3); conditions: BRSK2, 1 µM; read-out: Residual Activity (%)
# T6 construct: purchased ProQinase
# Procedure, shortened: as §1
# NEK11 = molecular target: T7, NEK11 (Homo sapiens, UniProt Q8NG66); conditions: NEK11, 1 µM; read-out: Residual Activity (%)
# T7 construct: purchased ProQinase
# Procedure, shortened: as §1
# CSK = molecular target: T8, CSK (Homo sapiens, UniProt P41240); conditions: read-out: Residual Activity (%)
# T8 construct: purchased ProQinase
# Procedure, shortened: as §1
# p38-delta = molecular target: T9, p38-delta (Homo sapiens, UniProt O15264); conditions: read-out: Residual Activity (%)
# T9 construct: purchased ProQinase
# Procedure, shortened: as §1
# SRPK2 = molecular target: T10, SRPK2 (Homo sapiens, UniProt P78362); conditions: SRPK2, 1 µM; read-out: Residual Activity (%)
# T10 construct: purchased ProQinase
# Procedure, shortened: as §1
# MARK2 = molecular target: T11, MARK2 (Homo sapiens, UniProt Q7KZI7); conditions: MARK2, 1 µM; read-out: Residual Activity (%)
# T11 construct: purchased ProQinase
# Procedure, shortened: as §1
# MUSK = molecular target: T12, MUSK (Homo sapiens, UniProt O15146); conditions: read-out: Residual Activity (%)
# T12 construct: purchased ProQinase
# Procedure, shortened: as §1
# LCK = molecular target: T13, LCK (Homo sapiens, UniProt P06239); conditions: read-out: Residual Activity (%)
# T13 construct: purchased ProQinase
# Procedure, shortened: as §1
# ERBB2 = molecular target: T14, ERBB2 (Homo sapiens, UniProt P04626); conditions: ERBB2, 1 µM; read-out: Residual Activity (%)
# T14 construct: purchased ProQinase
# Procedure, shortened: as §1
# MAP3K7/MAP3K7IP1 = molecular target: T15, MAP3K7/MAP3K7IP1 (Homo sapiens, UniProt O43318); conditions: MAP3K7/MAP3K7IP1, 1 µM; read-out: Residual Activity (%)
# T15 construct: purchased ProQinase
# Procedure, shortened: as §1
# TRK-C = molecular target: T16, TRK-C (Homo sapiens, UniProt Q16288); conditions: read-out: Residual Activity (%)
# T16 construct: purchased ProQinase
# Procedure, shortened: as §1
# CK1-gamma1 = molecular target: T17, CK1-gamma1 (Homo sapiens, UniProt Q9HCP0); conditions: CK1-gamma1, 1 µM; read-out: Residual Activity (%)
# T17 construct: purchased ProQinase
# Procedure, shortened: as §1
# CDK1/CycA2 = molecular target: T18, CDK1/CycA2 (Homo sapiens, UniProt P06493); conditions: CDK1/CycA2, 1 µM; read-out: Residual Activity (%)
# T18 construct: purchased ProQinase
# Procedure, shortened: as §1
# INS-R = molecular target: T19, INS-R (Homo sapiens, UniProt P06213); conditions: read-out: Residual Activity (%)
# T19 construct: purchased ProQinase
# Procedure, shortened: as §1
# LIMK2 = molecular target: T20, LIMK2 (Homo sapiens, UniProt P53671); conditions: LIMK2, 1 µM; read-out: Residual Activity (%)
# T20 construct: purchased ProQinase
# Procedure, shortened: as §1
# AKT1 aa106-480 = molecular target: T21, AKT1 aa106-480 (Homo sapiens, UniProt P31749); conditions: AKT1 aa106-480, 1 µM; read-out: Residual Activity (%)
# T21 construct: purchased ProQinase
# Procedure, shortened: as §1
# TAOK3 = molecular target: T22, TAOK3 (Homo sapiens, UniProt Q9H2K8); conditions: TAOK3, 1 µM; read-out: Residual Activity (%)
# T22 construct: purchased ProQinase
# Procedure, shortened: as §1
# PKC-mu = molecular target: T23, PKC-mu (Homo sapiens, UniProt Q15139); conditions: read-out: Residual Activity (%)
# T23 construct: purchased ProQinase
# Procedure, shortened: as §1
# ALK (GST-HIS-tag) = molecular target: T24, ALK (GST-HIS-tag) (Homo sapiens, UniProt Q9UM73); conditions: read-out: Residual Activity (%)
# T24 construct: purchased ProQinase
# Procedure, shortened: as §1
# p38-gamma = molecular target: T25, p38-gamma (Homo sapiens, UniProt P53778); conditions: read-out: Residual Activity (%)
# T25 construct: purchased ProQinase
# Procedure, shortened: as §1
# GSG2 = molecular target: T26, GSG2 (Homo sapiens, UniProt Q8TF76); conditions: GSG2, 1 µM; read-out: Residual Activity (%)
# T26 construct: purchased ProQinase
# Procedure, shortened: as §1
# BRK = molecular target: T27, BRK (Homo sapiens, UniProt Q13882); conditions: read-out: Residual Activity (%)
# T27 construct: purchased ProQinase
# Procedure, shortened: as §1
# DYRK3 = molecular target: T28, DYRK3 (Homo sapiens, UniProt O43781); conditions: DYRK3, 1 µM; read-out: Residual Activity (%)
# T28 construct: purchased ProQinase
# Procedure, shortened: as §1
# STK39 = molecular target: T29, STK39 (Homo sapiens, UniProt Q9UEW8); conditions: STK39, 1 µM; read-out: Residual Activity (%)
# T29 construct: purchased ProQinase
# Procedure, shortened: as §1
# NLK = molecular target: T30, NLK (Homo sapiens, UniProt Q9UBE8); conditions: read-out: Residual Activity (%)
# T30 construct: purchased ProQinase
# Procedure, shortened: as §1
# T19 sequence (P06213 980-1382 limits assumed): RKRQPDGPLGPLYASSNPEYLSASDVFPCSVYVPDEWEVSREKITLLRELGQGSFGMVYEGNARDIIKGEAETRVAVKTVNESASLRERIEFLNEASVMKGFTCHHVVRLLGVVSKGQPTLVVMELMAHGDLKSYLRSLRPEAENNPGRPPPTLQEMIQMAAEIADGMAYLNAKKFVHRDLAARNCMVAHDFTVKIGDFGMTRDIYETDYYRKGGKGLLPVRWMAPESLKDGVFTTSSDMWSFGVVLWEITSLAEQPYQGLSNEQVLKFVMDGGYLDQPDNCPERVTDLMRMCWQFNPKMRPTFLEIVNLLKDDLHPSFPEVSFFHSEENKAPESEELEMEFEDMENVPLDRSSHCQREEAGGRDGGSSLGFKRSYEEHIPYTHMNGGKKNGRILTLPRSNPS
# T21 sequence (P31749 106-480 limits assumed): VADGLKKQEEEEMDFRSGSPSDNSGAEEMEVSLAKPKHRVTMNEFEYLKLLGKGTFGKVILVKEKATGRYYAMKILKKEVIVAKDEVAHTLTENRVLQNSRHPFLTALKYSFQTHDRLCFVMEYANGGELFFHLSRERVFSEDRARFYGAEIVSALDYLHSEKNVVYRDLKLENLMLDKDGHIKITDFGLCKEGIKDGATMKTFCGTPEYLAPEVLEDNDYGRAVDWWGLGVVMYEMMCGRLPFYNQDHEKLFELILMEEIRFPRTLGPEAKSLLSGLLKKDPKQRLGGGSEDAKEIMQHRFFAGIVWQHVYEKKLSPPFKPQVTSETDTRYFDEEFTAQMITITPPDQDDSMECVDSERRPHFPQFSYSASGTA
# T16 sequence (Q16288 32-839): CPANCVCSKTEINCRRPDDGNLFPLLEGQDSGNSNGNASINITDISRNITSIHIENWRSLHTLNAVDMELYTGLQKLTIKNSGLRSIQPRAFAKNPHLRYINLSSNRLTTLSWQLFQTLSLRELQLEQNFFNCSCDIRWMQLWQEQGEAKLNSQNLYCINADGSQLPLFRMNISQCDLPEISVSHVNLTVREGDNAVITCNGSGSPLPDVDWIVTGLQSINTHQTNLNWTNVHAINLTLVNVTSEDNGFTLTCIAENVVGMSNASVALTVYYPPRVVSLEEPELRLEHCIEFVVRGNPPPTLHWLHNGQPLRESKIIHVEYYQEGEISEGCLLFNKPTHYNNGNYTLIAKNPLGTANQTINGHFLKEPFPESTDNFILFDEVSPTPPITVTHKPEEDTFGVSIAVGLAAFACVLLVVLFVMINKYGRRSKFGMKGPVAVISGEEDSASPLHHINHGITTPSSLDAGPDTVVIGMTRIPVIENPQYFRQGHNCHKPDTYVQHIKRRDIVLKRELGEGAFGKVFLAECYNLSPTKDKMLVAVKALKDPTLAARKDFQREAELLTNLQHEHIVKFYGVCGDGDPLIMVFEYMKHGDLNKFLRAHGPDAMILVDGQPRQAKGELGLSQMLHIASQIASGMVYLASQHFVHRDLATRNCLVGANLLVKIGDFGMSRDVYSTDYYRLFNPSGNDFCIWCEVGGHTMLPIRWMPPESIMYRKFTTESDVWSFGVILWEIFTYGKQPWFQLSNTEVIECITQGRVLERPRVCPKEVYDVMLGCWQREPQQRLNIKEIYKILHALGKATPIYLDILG
# T27 sequence (Q13882 whole entry): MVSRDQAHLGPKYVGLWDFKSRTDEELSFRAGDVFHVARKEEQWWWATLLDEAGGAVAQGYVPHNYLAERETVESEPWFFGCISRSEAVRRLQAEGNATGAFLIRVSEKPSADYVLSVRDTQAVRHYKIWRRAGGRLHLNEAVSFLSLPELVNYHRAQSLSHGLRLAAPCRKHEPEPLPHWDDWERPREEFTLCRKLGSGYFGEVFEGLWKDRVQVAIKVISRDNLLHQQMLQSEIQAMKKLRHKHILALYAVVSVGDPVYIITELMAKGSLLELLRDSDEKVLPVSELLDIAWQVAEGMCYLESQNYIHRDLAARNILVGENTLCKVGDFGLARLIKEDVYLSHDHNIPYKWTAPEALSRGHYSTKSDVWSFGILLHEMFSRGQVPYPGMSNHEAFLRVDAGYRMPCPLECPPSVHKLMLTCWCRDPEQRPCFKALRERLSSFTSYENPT
# T10 sequence (P78362 whole entry): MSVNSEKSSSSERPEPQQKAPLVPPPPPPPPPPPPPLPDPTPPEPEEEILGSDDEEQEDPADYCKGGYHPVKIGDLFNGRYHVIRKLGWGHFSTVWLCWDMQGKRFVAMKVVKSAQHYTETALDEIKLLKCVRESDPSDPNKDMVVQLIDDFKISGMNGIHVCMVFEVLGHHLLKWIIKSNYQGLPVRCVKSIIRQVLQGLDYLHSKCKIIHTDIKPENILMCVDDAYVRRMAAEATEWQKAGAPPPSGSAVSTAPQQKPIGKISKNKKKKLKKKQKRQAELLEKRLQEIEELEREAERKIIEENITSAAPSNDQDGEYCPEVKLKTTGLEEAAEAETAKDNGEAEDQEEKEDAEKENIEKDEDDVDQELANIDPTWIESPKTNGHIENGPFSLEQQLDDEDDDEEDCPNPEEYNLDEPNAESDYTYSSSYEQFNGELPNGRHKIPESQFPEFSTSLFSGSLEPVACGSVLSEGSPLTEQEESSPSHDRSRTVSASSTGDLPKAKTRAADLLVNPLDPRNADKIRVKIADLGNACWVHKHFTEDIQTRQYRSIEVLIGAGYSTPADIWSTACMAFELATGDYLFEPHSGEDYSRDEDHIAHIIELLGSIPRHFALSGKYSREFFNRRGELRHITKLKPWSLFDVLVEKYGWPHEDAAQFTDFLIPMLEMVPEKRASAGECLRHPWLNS
# T15 sequence (O43318 1-303 limits assumed): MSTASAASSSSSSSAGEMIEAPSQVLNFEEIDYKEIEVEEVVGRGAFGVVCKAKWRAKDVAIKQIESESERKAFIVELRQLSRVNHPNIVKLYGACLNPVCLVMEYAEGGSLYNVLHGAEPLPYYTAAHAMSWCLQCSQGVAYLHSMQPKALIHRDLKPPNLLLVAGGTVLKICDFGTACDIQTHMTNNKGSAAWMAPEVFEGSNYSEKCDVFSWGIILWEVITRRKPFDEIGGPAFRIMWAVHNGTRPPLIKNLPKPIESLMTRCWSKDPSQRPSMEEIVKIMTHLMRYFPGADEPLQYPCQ
# T15 sequence (Q15750 437-504 partner limits assumed): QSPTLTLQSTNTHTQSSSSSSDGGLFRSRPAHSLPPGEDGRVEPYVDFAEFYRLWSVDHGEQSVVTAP
# T3 sequence (Q13043 whole entry): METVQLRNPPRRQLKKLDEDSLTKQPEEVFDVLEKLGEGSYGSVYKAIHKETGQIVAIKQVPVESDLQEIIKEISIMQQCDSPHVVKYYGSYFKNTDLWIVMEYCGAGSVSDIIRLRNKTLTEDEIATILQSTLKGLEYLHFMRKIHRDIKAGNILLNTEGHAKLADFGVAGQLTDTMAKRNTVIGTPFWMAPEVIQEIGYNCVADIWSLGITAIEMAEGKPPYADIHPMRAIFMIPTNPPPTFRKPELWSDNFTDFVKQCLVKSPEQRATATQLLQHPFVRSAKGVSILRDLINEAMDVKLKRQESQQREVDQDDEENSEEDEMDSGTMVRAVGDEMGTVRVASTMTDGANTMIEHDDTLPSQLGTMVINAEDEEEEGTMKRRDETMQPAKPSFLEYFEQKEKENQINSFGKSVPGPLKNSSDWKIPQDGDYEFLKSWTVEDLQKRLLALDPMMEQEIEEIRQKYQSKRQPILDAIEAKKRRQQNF
# T9 sequence (O15264 whole entry): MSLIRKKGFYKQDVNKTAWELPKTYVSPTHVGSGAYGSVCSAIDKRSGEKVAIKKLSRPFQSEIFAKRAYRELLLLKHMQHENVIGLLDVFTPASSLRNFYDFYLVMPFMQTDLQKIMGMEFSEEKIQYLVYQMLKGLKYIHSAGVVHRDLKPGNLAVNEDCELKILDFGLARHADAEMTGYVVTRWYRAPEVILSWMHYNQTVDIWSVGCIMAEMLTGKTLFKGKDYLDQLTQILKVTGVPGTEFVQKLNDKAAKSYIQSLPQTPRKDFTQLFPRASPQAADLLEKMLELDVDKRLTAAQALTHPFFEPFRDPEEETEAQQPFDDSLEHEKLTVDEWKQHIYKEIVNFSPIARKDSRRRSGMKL
# T13 sequence (P06239 whole entry): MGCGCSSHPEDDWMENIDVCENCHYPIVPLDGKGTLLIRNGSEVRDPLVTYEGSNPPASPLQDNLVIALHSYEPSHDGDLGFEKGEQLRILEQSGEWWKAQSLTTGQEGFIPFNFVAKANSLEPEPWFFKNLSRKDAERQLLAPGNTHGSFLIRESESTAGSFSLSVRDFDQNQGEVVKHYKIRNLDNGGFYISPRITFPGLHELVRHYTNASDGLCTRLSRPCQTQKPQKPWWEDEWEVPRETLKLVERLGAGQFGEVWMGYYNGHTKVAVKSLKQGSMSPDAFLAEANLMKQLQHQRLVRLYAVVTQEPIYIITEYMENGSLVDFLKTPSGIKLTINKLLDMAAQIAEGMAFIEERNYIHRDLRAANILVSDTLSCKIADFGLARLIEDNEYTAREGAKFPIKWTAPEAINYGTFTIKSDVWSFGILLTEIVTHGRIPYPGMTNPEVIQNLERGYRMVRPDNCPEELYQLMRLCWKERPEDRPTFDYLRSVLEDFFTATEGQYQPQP
# T5 sequence (P15735 whole entry): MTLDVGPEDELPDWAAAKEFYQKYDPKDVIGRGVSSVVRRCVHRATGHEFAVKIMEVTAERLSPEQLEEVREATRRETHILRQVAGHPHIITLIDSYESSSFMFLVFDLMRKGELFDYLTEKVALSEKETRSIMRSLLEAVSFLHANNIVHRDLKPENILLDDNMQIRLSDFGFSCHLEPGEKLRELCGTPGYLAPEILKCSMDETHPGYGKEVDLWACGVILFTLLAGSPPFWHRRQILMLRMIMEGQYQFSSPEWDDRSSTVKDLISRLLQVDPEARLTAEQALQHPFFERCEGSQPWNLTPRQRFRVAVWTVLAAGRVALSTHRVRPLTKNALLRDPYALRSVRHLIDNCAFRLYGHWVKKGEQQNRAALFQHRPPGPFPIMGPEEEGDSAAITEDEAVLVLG
smiles,measurement,setting,value
COc1ccc(-c2cc(C(=O)Nc3cc(-c4c(-c5ccc(F)cc5)noc4C(C)C)ccn3)n(CC3NCC(O)C3O)c2)cc1 (stereo not drawn) [29d],remaining activity at 1 µM,FYN,156%
same,remaining activity at 1 µM,VEGF-R3,124%
same,remaining activity at 1 µM,MST1,101%
same,remaining activity at 1 µM,PDK1,93%
same,remaining activity at 1 µM,PHKG2,93%
same,remaining activity at 1 µM,BRSK2,90%
same,remaining activity at 1 µM,NEK11,100%
same,remaining activity at 1 µM,CSK,115%
same,remaining activity at 1 µM,p38-delta,99%
same,remaining activity at 1 µM,SRPK2,107%
same,remaining activity at 1 µM,MARK2,97%
same,remaining activity at 1 µM,MUSK,97%
same,remaining activity at 1 µM,LCK,96%
same,remaining activity at 1 µM,ERBB2,121%
same,remaining activity at 1 µM,MAP3K7/MAP3K7IP1,95%
same,remaining activity at 1 µM,TRK-C,105%
same,remaining activity at 1 µM,CK1-gamma1,88%
same,remaining activity at 1 µM,CDK1/CycA2,102%
same,remaining activity at 1 µM,INS-R,101%
same,remaining activity at 1 µM,LIMK2,98%
same,remaining activity at 1 µM,AKT1 aa106-480,84%
same,remaining activity at 1 µM,TAOK3,96%
same,remaining activity at 1 µM,PKC-mu,94%
same,remaining activity at 1 µM,ALK (GST-HIS-tag),105%
same,remaining activity at 1 µM,p38-gamma,99%
same,remaining activity at 1 µM,GSG2,91%
same,remaining activity at 1 µM,BRK,131%
same,remaining activity at 1 µM,DYRK3,106%
same,remaining activity at 1 µM,STK39,110%
same,remaining activity at 1 µM,NLK,71%
